According to the NIST ThermoML archive (doi:10.1016/j.jct.2015.05.024):
± gives the expanded uncertainty stated by the source.

Experiments:
[1] = 100 kPa, Liquid; for mass density: Vibrating tube method; for speed of sound: Frequency=5 MHz, Pulse-echo method
[2] = xn = mol fraction of the nth substance listed; details: 100 kPa, Liquid, x2 = 0; for mass density: Vibrating tube method; for speed of sound: Frequency=5 MHz, Pulse-echo method

OCCOCCOCCO [triethylene glycol]
[1]
Details	mass density [kg/m3]	speed of sound [m/s]
278.15 K	1135.14 ± 0.34	–
283.15 K	1131.29 ± 0.34	–
288.15 K	1127.43 ± 0.33	1643.9 ± 1.4
293.15 K	1123.56 ± 0.33	1629 ± 1.4
298.15 K	1119.69 ± 0.33	1613.5 ± 1.4
303.15 K	1115.81 ± 0.32	1599.1 ± 1.4
308.15 K	1111.92 ± 0.32	1584.6 ± 1.4
313.15 K	1108.03 ± 0.32	1569.1 ± 1.4
318.15 K	1104.13 ± 0.31	1554.7 ± 1.4
323.15 K	1100.22 ± 0.31	–
328.15 K	1096.3 ± 0.31	–
333.15 K	1092.38 ± 0.3	–

O [water]
[1]
Details	mass density [kg/m3]	speed of sound [m/s]
278.15 K	999.965 ± 0.11	–
283.15 K	999.698 ± 0.11	–
313.15 K	–	1528.8 ± 0.99
318.15 K	–	1536.7 ± 0.99
323.15 K	988.027 ± 0.11	–
328.15 K	985.682 ± 0.11	–
333.15 K	983.186 ± 0.11	–

O [water] + OCCOCCOCCO
[2]
Details	mass density [kg/m3]	speed of sound [m/s]
278.15 K	999.965 ± 0.11	–
283.15 K	999.698 ± 0.11	–
313.15 K	–	1528.8 ± 0.99
318.15 K	–	1536.7 ± 0.99
323.15 K	988.027 ± 0.11	–
328.15 K	985.682 ± 0.11	–
333.15 K	983.186 ± 0.11	–
